In patent US20070122344A1, “Intraoperative determination of nerve location” (University of Rochester Medical Center Office of Technology …, priority 2005, published 2007):
“Also recorded” adds a separate entry of the source. Where two headings read alike, the source gives them in different places.

Key:
mammals = details: cited from earlier work
cavernous nerves = assay: NIRF intraoperative imaging of rat cavernous nerves after injection of ICG into the crura; format: in vivo; details: rats
Description: The area was examined for retrograde axonal transport at different time points, using a NIRF intraoperative imaging system (SPY®, Novadaq Technologies Inc., Mississauga, Ontario, Canada) that illuminates tissues with a 805 nm laser and captures images with a camera sensitive to infrared fluorescence. Near infrared microscopy and conventional histology were used to confirm the macroscopically identified fluorescent structures. […] (These were specific time points at which examinations were made. […] The fluorescent nerves were then excised.

[1] = cited from earlier work
[2] = mammals, several months after the treatment

Compound | neuronal toxicity (mammals; [2]) | neuronal toxicity (mammals; used in mammals) | identification of the cavernous nerves by fluorescence (cavernous nerves; ICG injected into both crura, examined at 6, 8, 12, 18, 24 and 36 hours post injection, NIRF imaging (SPY)) | fluorescence of the cavernous nerves at longer post-injection periods (cavernous nerves; ICG injected into crura, e.g. 30 days post-injection) | distribution ([1]; after intravenous injection, with normal vascular permeability) | excretion ([1]; after intravenous injection) | metabolism in the body ([1]; after intravenous injection) | enterohepatic recirculation ([1]; in vivo) | reabsorption from the intestine ([1]; in vivo)
Fast Blue | without evidence of neuronal toxicity | low evidence of neuronal toxicity | – | – | – | – | – | – | –
CC1(C)C(/C=C/C=C/C=C/C=C2\N(CCCCS(=O)(=O)O)c3ccc4ccccc4c3C2(C)C)=[N+](CCCCS(=O)(=O)[O-])c2ccc3ccccc3c21 [ICG, indocyanine green] | without evidence of neuronal toxicity | low evidence of neuronal toxicity | permitted identification of the nerves; also recorded: nerves were identified in situ | not detectable | remains intravascular | excreted exclusively by the liver | not metabolized | does not undergo enterohepatic recirculation | not reabsorbed
N=C(N)c1ccc(/C=C/c2ccc(C(=N)N)cc2O)cc1 [Fluorogold] | without evidence of neuronal toxicity | low evidence of neuronal toxicity | – | – | – | – | – | – | –
